The results in this text go back to PubChem BioAssay (NCI).

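A five-concentration, 48-hour dose response in 96-well plates underlies each endpoint, interpolated linearly between surrounding concentrations. Definition used: TGI = concentration required for complete inhibition of growth.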

Test systems include CCRF-CEM leukemia; IGROV1 ovarian; LOX IMVI melanoma; HT29 colon; SNB-19 CNS; MDA-MB-435; UACC-62 melanoma; HS 578T breast; HOP-62 NSCLC; SR leukemia.
What all share (assay): NCI-60 cell line screen, 48 h

With `Cn1ncc2c(Nc3cccc(Cl)c3)nc(Nc3cccc(Cl)c3)nc21`, the TGI with CCRF-CEM leukemia was 2.89 µM; in the assay with IGROV1 ovarian, greater than 66.6 µM; with LOX IMVI melanoma, greater than 85.7 µM; with HT29 colon, greater than 56.8 µM; in the assay on SNB-19 CNS it was greater than 94 µM; in the assay on MDA-MB-435, greater than 57.6 µM. Moreover, the results for the TGI with UACC-62 melanoma, in the assay on HS 578T breast and with HOP-62 NSCLC were 38.5 µM, 43.9 µM and 68.6 µM, respectively.

In the case of `COC(=O)C1=COC(OC2OC(CO)C(O)C(O)C2O)C2C3CN4CCc5c([nH]c6ccccc56)C4(CC12)O3` (configuration not stated), the TGI in the assay on IGROV1 ovarian, with LOX IMVI melanoma, in the assay on SR leukemia, in the assay with HT29 colon, in the assay on SNB-19 CNS and in the assay on UACC-62 melanoma was greater than 100 µM each time. The molecule further showed a TGI with HOP-62 NSCLC greater than 100 µM.

Consider `Cc1c(Cl)nc(Cl)nc1Cl`, for which the TGI in the assay with CCRF-CEM leukemia turned out to be 0.676 µM; in the assay on IGROV1 ovarian it was 8.33 µM; in the assay with LOX IMVI melanoma, 1.34 µM; in the assay on SR leukemia it was 10.8 µM; in the assay with HT29 colon, 6.4 µM; with SNB-19 CNS, 9.09 µM. The TGI in the assay on MDA-MB-435 worked out at 6.75 µM; in the assay with UACC-62 melanoma it was 9.42 µM; with HS 578T breast, 8.31 µM; with HOP-62 NSCLC, 9.22 µM.

Consider `Cc1[nH]c(=O)[nH]c(=O)c1/C=C/C(=O)NC(CO)CS(=O)Cc1ccccc1` (configuration not stated), for which the TGI in the assay with CCRF-CEM leukemia, in the assay on IGROV1 ovarian, in the assay on LOX IMVI melanoma, in the assay with HT29 colon, in the assay on SNB-19 CNS and with UACC-62 melanoma was greater than 300 µM each time. The TGI in the assay with HOP-62 NSCLC is greater than 300 µM.

For the molecule `c1ccc(C(NC2=NCCO2)c2ccccc2)cc1`, the TGI with CCRF-CEM leukemia, in the assay with IGROV1 ovarian, in the assay on LOX IMVI melanoma, with SR leukemia, with HT29 colon and in the assay with SNB-19 CNS was greater than 10 µM throughout. Moreover, the TGI with MDA-MB-435, in the assay with UACC-62 melanoma, in the assay on HS 578T breast and in the assay with HOP-62 NSCLC was greater than 10 µM each time.

Take `CC(C)C(=O)CC(c1ccc(Cl)cc1)N1N=C(C(C)C)CC1c1ccc(Cl)cc1` (configuration not stated): the TGI in the assay with CCRF-CEM leukemia was greater than 69.8 µM; in the assay on IGROV1 ovarian, greater than 100 µM; in the assay on LOX IMVI melanoma it was greater than 100 µM; with SR leukemia, 28.2 µM; in the assay on HT29 colon, greater than 100 µM; in the assay with SNB-19 CNS, greater than 100 µM. For the same molecule, the TGI in the assay on UACC-62 melanoma and with HOP-62 NSCLC was greater than 100 µM each time.

For the molecule `C=CCN1C[C@H](C)N([C@@H](c2ccc(C(=O)N3CCCCC3)cc2)c2cccc(OC)c2)C[C@H]1C`, the TGI with CCRF-CEM leukemia is 70.4 µM; in the assay on IGROV1 ovarian, greater than 100 µM; with LOX IMVI melanoma, greater than 100 µM; with SR leukemia it was 35.4 µM; in the assay with HT29 colon, greater than 100 µM; in the assay with SNB-19 CNS it was greater than 100 µM. The TGI was greater than 100 µM in the assay on MDA-MB-435, 64.8 µM in the assay with UACC-62 melanoma, greater than 100 µM with HS 578T breast and greater than 100 µM in the assay with HOP-62 NSCLC.

On to `Cn1ccc(C(=O)NCCN(CCNC(=O)c2ccn(C)c(=O)c2O)CCNC(=O)c2ccn(C)c(=O)c2O)c(O)c1=O`, for which the TGI in the assay with CCRF-CEM leukemia, in the assay with IGROV1 ovarian, with SR leukemia, with HT29 colon, with SNB-19 CNS and in the assay with MDA-MB-435 was greater than 100 µM throughout. For the same molecule, the TGI in the assay on UACC-62 melanoma, in the assay on HS 578T breast and in the assay with HOP-62 NSCLC was greater than 100 µM each time.

Take `NNC(=O)CCSc1ccccc1`: the TGI with CCRF-CEM leukemia, in the assay on IGROV1 ovarian, with LOX IMVI melanoma, in the assay with SR leukemia, in the assay with HT29 colon and in the assay with SNB-19 CNS was greater than 100 µM each time. For the same molecule, the TGI in the assay with MDA-MB-435, in the assay with UACC-62 melanoma, in the assay with HS 578T breast and in the assay with HOP-62 NSCLC was greater than 100 µM throughout.

With `O=c1/c(=C/c2ccc([N+](=O)[O-])o2)sc2n1[C@@H](c1ccc(Cl)cc1)C=C(c1cc(F)c(Cl)cc1Cl)N=2`, the TGI with CCRF-CEM leukemia was greater than 100 µM; in the assay on IGROV1 ovarian, 31.7 µM; with LOX IMVI melanoma, 33.6 µM; in the assay on HT29 colon, 23.2 µM; with SNB-19 CNS, 33.6 µM; in the assay on MDA-MB-435, 36.2 µM. The TGI in the assay on UACC-62 melanoma was 29.2 µM; with HS 578T breast it was greater than 100 µM; in the assay on HOP-62 NSCLC, 30.6 µM.

Consider `CN(C)CCCSc1nc2c(c(=N)n1-c1ccccc1)c(=S)n(-c1ccccc1)c(=S)n2-c1ccccc1`, for which the TGI with CCRF-CEM leukemia is 2.41 µM; in the assay on IGROV1 ovarian, 3.14 µM; in the assay on LOX IMVI melanoma, 2.87 µM; in the assay on SR leukemia, 1.07 µM; with SNB-19 CNS, 8.14 µM; in the assay with MDA-MB-435 it was 3.09 µM. The TGI in the assay on UACC-62 melanoma is 3.23 µM; with HS 578T breast, greater than 100 µM; with HOP-62 NSCLC, 3.4 µM.

For the molecule `COc1cc(/C=N\c2nc(-c3ccc(NS(=O)(=O)c4ccc(Cl)c(OC)c4)cc3)cs2)ccc1O`, the TGI in the assay on CCRF-CEM leukemia, in the assay on IGROV1 ovarian, in the assay with LOX IMVI melanoma, with SR leukemia, in the assay on HT29 colon and in the assay with SNB-19 CNS was greater than 100 µM each time. The TGI in the assay on MDA-MB-435 was greater than 100 µM; with UACC-62 melanoma, 36.5 µM; in the assay with HS 578T breast it was greater than 100 µM; in the assay with HOP-62 NSCLC it was greater than 100 µM.

As for `COc1ccc(C(O)(c2ccccc2)c2nccc3ccccc23)cc1` (configuration not stated), the TGI was 8.98 µM with CCRF-CEM leukemia; greater than 100 µM with IGROV1 ovarian; greater than 100 µM in the assay on LOX IMVI melanoma; greater than 100 µM with SR leukemia; greater than 100 µM in the assay on HT29 colon; greater than 100 µM with SNB-19 CNS. Besides, the TGI in the assay on MDA-MB-435, in the assay with UACC-62 melanoma, in the assay on HS 578T breast and with HOP-62 NSCLC was greater than 100 µM throughout.

For the molecule `Cc1ccc(N=NC(=Nc2ccc(Cl)cc2)c2ccc(N(CCC#N)CCC#N)cc2)cc1`, the TGI with CCRF-CEM leukemia, in the assay with IGROV1 ovarian, in the assay with SR leukemia, in the assay with HT29 colon, in the assay on SNB-19 CNS and in the assay on MDA-MB-435 was greater than 100 µM in each case. The TGI in the assay on UACC-62 melanoma, in the assay on HS 578T breast and in the assay with HOP-62 NSCLC was greater than 100 µM in each case.
